Values quoted from earlier work in patent US20050255458A1, “Drug discovery assays based on the biology of chronic disease” (priority 2002, published 2005).
Read-outs that look alike come from different tables or passages of the source. Where a SMILES comes first, the peptide text is derived from it. [ ]: non-standard residue; d: D form. Aoe = N[C@@H](CCCCCC(=O)[C@@H]1CO1)C(=O)O

Tests used:
TF = settings: cited from earlier work; for effect on Cu^+2 induced procoagulant activity: probucol 20, vitamin E 50, BHT 50, U74389G 20 μmol/L
anagen hair follicles = settings: cited from earlier work; for scalp hair growth: Philpott 1996
ERK1/2 = settings: cited studies, various cells; cited from earlier work
Rb = settings: cited from earlier work; for increase in Rb mRNA: MEL cells, maximum on day three of induction
AR gene = settings: cited from earlier work
ERK [1] = settings: A variety of cell types; cited from earlier work
[2] = tested on: obese (fa/fa) Zucker rats; settings: cited from earlier work
ERK [3] = settings: cited from earlier work

[Cu+2] [Cu+2]
TF mRNA level (TF; at 2 hours): 50%
increase of TF mRNA (TF; at 6 hours): 3.5 fold

IL-β: printed IL-β, presumably IL-1β
scalp hair growth (anagen hair follicles): inhibition of scalp hair growth

CC[C@H](C)[C@@H]1NC(=O)[C@H](Cc2ccc(O)cc2)NC(=O)[C@@H](N)CSSC[C@@H](C(=O)N2CCC[C@H]2C(=O)N[C@@H](CC(C)C)C(=O)NCC(N)=O)NC(=O)[C@H](CC(N)=O)NC(=O)[C@H](CCC(N)=O)NC1=O [oxytocin]
phosphorylation of ERK1/2 (ERK1/2): phosphorylation of ERK1/2

interleukin 1β: cytokine, ERK agent
phosphorylation of ERK1/2 (ERK1/2): phosphorylation of ERK1/2

C[S+](C)[O-] [DMSO, dimethyl sulfoxide]
increase in Rb mRNA (Rb): 11 fold

TNFα
AR transcription in run-on assays (AR gene; LNCaP): No change in run-on
Effect on [mRNAAR] (AR gene; LNCaP): ↓[mRNAAR]
Effect on [ERK^phos] (ERK [1]): ↑[ERK^phos]
decrease of nighttime feeding (12 hours) ([2]; 50 ng/rat): 13%
decrease of short-term feeding (4 hours) ([2]; 50 ng/rat): 17%
decrease of total daily food intake ([2]; 50 ng/rat): 11%
decrease of nighttime feeding (12 hours) ([2]; 100 ng/rat): 14%
decrease of short-term feeding (4 hours) ([2]; 100 ng/rat): 20%
decrease of total daily food intake ([2]; 100 ng/rat): 12%
decrease of nighttime feeding (12 hours) ([2]; 500 ng/rat): 13%
decrease of short-term feeding (4 hours) ([2]; 500 ng/rat): 20%
decrease of total daily food intake ([2]; 500 ng/rat): 11%
scalp hair growth (anagen hair follicles): inhibition of scalp hair growth

transforming growth factor β
phosphorylation of ERK1/2 (ERK1/2): phosphorylation of ERK1/2

C[C@]12C=CC(=O)C=C1CC[C@@H]1C2=CC[C@]2(C)[C@@H](C(=O)CN3CCN(c4cc(N5CCCC5)nc(N5CCCC5)n4)CC3)CC[C@@H]12.O=C(O)/C=C\C(=O)O [U74389G]
effect on Cu^+2 induced procoagulant activity (TF): inhibited the Cu^+2 induced procoagulant activity

CC(C)(Sc1cc(C(C)(C)C)c(O)c(C(C)(C)C)c1)Sc1cc(C(C)(C)C)c(O)c(C(C)(C)C)c1 [probucol]
effect on Cu^+2 induced procoagulant activity (TF): inhibited the Cu^+2 induced procoagulant activity

tumor necrosis factor α
phosphorylation of ERK1/2 (ERK1/2): phosphorylation of ERK1/2

CC(=O)NCCCCCCNC(C)=O [HMBA, hexamethylene bisacetamide]
cells irreversibly committed to differentiate (Rb; DS19/Sc9, 48 h of culture): Over 90%
increase in Rb transcription (Rb; DS19/Sc9): 3.6 fold
increase in total pRb (Rb; DS19/Sc9 asynchronous cultures): 2-to 3 fold
increase in Rb mRNA (Rb): 7 fold

C/C=C(/C)C(=O)O[C@H]1C(C)=C2[C@H]([C@@H]1OC(=O)CCCCCCC)[C@@](C)(OC(C)=O)C[C@H](OC(=O)CCC)[C@@]1(O)[C@H]2OC(=O)[C@@]1(C)O [thapsigargin]
phosphorylation of ERK1/2 (ERK1/2): phosphorylation of ERK1/2

CC(=O)O[C@]1(C(C)=O)CC[C@H]2[C@@H]3C=C(Cl)C4=CC(=O)[C@@H]5C[C@@H]5[C@]4(C)[C@H]3CC[C@@]21C [Cyproterone acetate]
Effect on [mRNAAR] (AR gene; LNCaP): ↓[mRNAAR]

CNc1ccc2oc(C[C@H]3O[C@@]4(CC[C@H]3C)O[C@H]([C@H](C)C(=O)c3ccc[nH]3)[C@H](C)C[C@H]4C)nc2c1C(=O)O [A 23187]
hair growth (anagen hair follicles; 6 days culture, A 23187 2 μM, TPA 1 μM, IL-1 100 ng per ml (Hoffmann 1997)): significantly inhibited hair growth

CC(/C=C/C(=O)NO)=C\[C@@H](C)C(=O)c1ccc(N(C)C)cc1 [trichostatin A]
phosphorylation of ERK1/2 (ERK1/2): phosphorylation of ERK1/2

interferon-γ: ERK agent cytokine
phosphorylation of ERK1/2 (ERK1/2): phosphorylation of ERK1/2

[Cu] [copper]
phosphorylation of ERK1/2 (ERK1/2): phosphorylation of ERK1/2

C[C@]12CC[C@@H]3c4ccc(O)cc4CC[C@H]3[C@@H]1CCC2=O [estron]
phosphorylation of ERK1/2 (ERK1/2): phosphorylation of ERK1/2

interleukin 6: cytokine, ERK agent
phosphorylation of ERK1/2 (ERK1/2): phosphorylation of ERK1/2
AR mRNA (AR gene; LNCaP (Lin 2001)): decreased AR mRNA
ERK phosphorylation (ERK [3]; AF-10 human B cell line): increased ERK phosphorylation
ERK phosphorylation (ERK [3]; LNCaP cells): increased ERK phosphorylation

[Zn] [zinc]
phosphorylation of ERK1/2 (ERK1/2): phosphorylation of ERK1/2

estrogen
growth of isolated hair follicles (anagen hair follicles; Kondo 1990): growth inhibition

O=C1N[C@@H](Cc2ccccc2)C(=O)N2CCC[C@@H]2C(=O)N[C@@H](CCCCCC(=O)[C@@H]2CO2)C(=O)N[C@H]1Cc1ccccc1 [trapoxin] (cyclo(FF[dP][Aoe]))
phosphorylation of ERK1/2 (ERK1/2): phosphorylation of ERK1/2

Cc1cc(C(C)(C)C)c(O)c(C(C)(C)C)c1 [BHT]
effect on Cu^+2 induced procoagulant activity (TF): inhibited the Cu^+2 induced procoagulant activity

CC[C@H]1CN2CCc3cc(OC)c(OC)cc3[C@@H]2C[C@@H]1C[C@H]1NCCc2cc(OC)c(OC)cc21 [emetine]
c-mos expression and ERK phosphorylation (ERK [3]; starfish eggs): inhibition of c-mos expression and ERK phosphorylation
